Results on 6 compounds are retold here after patent publication US7169805B2 (Nicox S.A., priority 2003, dated 2007).

Series [1] deals with isolated rabbit thoracic aorta preparations. Description: Vasorelaxing activity in isolated rabbit thoracic aorta rings precontracted with noradrenaline. It counts as cell-based. The following applies: for IC50 / Emax: Oryctolagus cuniculus, NA (1 μM) precontracted rings with functional endothelium; for IC50: read-out: IC50 (concentration producing 50% of the maximum relaxation); for Emax: at 100 μM of tested compound, read-out: Emax (maximum efficacy). The protocol: Male New Zealand rabbits were anaesthetized with thiopental-Na (50 mg/kg, iv), sacrificed by exsanguinations and then the thorax was opened and the aorta dissected. Single ring preparations (4 mm in length) of thoracic aorta were set up in physiological salt solution (PSS) at 37° C. in small organ chambers (5 ml). The composition of PSS was (mM): NaCl 130, NaHCO3 14.9, KH2PO4 1.2, MgSO4 1.2, HEPES 10, […] (95% O2/5% CO2; pH 7.4). Each ring was mounted under 2 g passive tension. Isometric tension was recorded with a Grass transducer (Grass FT03) attached to a BIOPAC MP150 System. Preparations were allowed to equilibrate for 1 h, then contracted submaximally with noradrenaline (NA, 1 μM) and, when the contraction was stable, acetylcholine (ACh, 10 μM) was added. A relaxant response to ACh indicated the presence of a functional endothelium. […] When a stable precontraction was reached, a cumulative concentration-response curve for each of the tested compounds was obtained in the presence of a functional endothelium. Time intervals between different concentrations were based on the time needed to reach a full response. Each arterial ring was exposed to only one combination of inhibitor and the tested compounds. Moreover, the effect of the soluble guanylyl cyclase inhibitor ODQ (1-H-(1,2,4)-oxadiazol (4,3-a)quinoxalin-1-one) on the dilator responses elicited by the compounds was examined preincubating the aortic rings with ODQ (10 μM) for 20 min.
Results are expressed as IC50 value, which is the concentration of the tested compound producing 50% of the maximum relaxation, and as Emax value which is the maximum efficacy at a concentration of 100 μM of the tested compound.
During the experimental period, the plateau obtained with NA was stable without significant spontaneous loss of contraction in the aortic rings.
Furthermore, in experiments performed in presence of ODQ (10 μM), the vasorelaxant responses to all the tested compounds were inhibited.

The subject of a further series is SHR rats. Kind of series: Antihypertensive activity in a genetic model of hypertension (SHR rats), arterial pressure. The format is in vivo, rat. The following applies: single oral dose 30 mg/Kg; for Arterial pressure (MAP): 4 hours after treatment; for Reduction of blood pressure vs the control: 4 hrs after treatment. The protocol: (§1) SHR rats were treated orally in a single dose of 30 mg/Kg. After 2 hours the animal were anaesthetized with tiopental-Na; a fluid catheter was inserted in a right carotid artery and connected to a transducer for the homodynamic measurements. 4 hours after the treatment the arterial pressure (MAP, mmHg) was measured.

Another series deals with T1, ACE (Rattus norvegicus, UniProt P47820).
T1 construct: from tissue; host or cells: heparinized plasma of orally treated SHR rats
T1 sequence (P47820 36-1238 limits assumed): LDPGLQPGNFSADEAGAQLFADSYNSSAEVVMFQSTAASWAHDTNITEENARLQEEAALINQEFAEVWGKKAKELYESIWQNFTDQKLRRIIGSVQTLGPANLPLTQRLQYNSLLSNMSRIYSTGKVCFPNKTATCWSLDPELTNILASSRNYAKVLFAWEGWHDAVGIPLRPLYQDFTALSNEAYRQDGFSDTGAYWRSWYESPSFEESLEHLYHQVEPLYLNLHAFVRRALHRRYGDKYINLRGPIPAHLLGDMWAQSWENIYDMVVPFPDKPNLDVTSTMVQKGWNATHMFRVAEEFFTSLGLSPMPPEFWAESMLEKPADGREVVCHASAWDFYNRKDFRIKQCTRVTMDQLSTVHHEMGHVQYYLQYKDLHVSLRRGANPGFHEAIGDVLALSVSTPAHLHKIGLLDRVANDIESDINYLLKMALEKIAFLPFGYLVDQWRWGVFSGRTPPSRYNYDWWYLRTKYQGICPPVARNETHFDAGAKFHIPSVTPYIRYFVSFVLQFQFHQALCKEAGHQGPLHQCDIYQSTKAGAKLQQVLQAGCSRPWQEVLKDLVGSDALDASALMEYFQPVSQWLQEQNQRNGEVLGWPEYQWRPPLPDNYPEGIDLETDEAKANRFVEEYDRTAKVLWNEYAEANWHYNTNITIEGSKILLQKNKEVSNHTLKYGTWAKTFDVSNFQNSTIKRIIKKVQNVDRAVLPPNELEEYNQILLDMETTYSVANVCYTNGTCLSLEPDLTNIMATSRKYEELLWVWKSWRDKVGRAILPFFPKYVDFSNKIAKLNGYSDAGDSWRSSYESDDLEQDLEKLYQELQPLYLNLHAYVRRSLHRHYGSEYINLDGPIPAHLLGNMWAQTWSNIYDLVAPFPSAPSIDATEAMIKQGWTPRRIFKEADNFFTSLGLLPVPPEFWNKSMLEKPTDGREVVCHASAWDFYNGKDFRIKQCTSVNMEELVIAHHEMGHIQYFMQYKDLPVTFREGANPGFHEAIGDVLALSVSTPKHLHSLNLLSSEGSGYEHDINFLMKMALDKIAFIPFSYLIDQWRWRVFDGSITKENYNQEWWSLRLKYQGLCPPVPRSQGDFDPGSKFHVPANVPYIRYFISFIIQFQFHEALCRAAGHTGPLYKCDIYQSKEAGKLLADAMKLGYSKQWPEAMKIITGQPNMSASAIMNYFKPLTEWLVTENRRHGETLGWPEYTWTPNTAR
Description: Plasma ACE activity of treated SHR rats, spectrophotometric FAPGG hydrolysis. The format is in vivo. The conditions noted are these: heparinized plasma of SHR rats after single oral dose 30 mg/Kg, collected at end of experiment. The protocol: as §1
At the end of the experiments the blood was collected from the right carotid. The heparinized blood samples were centrifuged at 1000 g for 20 min at 4° C. The plasma was stored at −20° C. until the ACE activity measurements.
The ACE activity was determined by a spectrophotometric method (Sigma) based on the enzymatic reaction catalysed by ACE, where the FAPGG was hydrolysed to FAP.
FAPGG hydrolysis produced a decrease in the absorbance at 340 nm, a marker of ACE activity in the sample. Results, reported in table 3, were expressed as U/L in heparinized plasma.

For series [2] the following is noted: given orally; cited from earlier work.

Take `CC(=O)SC[C@@H](C)C(=O)N1CCC[C@H]1C(=O)Oc1cccc(CO[N+](=O)[O-])c1` [Ex. 8b, 1-[3-(acetylthio)-(2S)-methyl-1-oxopropyl]-L-proline 3-nitrooxymethylphenyl ester]: in series [1], the IC50 was found to be 4.01 ± 1.18 µM and the Emax is 92.4 ± 4.15%. In the series on SHR rats, the “Arterial pressure (MAP)” value was 116 mmHg and the “Reduction of blood pressure vs the control” value amounted to 43%. In addition, on ACE, the ACE activity worked out at 53 U/L.
For `C[C@H](CS)C(=O)N1CCC[C@H]1C(=O)O` [Captopril, 1-[(2S)-3-mercapto-2-methylpropionyl]-L-proline, reference compound], the maximal effect (Emax) in series [1] was 0%. Besides, in series [1] (any of the concentrations tested, curve not different from vehicle alone), the “Relaxation of aortic rings (in words)” value was “did not produce relaxation”. Moreover, in the series with SHR rats, the “Arterial pressure (MAP)” value is 145 mmHg. Also, in series [2], the Bioavailability result is reported as “about 75%” and the “Elimination route (in words)” value was “most of the drug is eliminated in urine”.
For `CC(=O)SC[C@@H](C)C(=O)N1CCC[C@H]1C(=O)N[C@H](Cc1ccccc1)C(=O)Oc1cccc(CO[N+](=O)[O-])c1` [Ex. 9, 1-[(2S)-3-(Acetylthio)-2-methyl-1-oxopropyl]-L-prolyl-L-phenylalanine 3-nitrooxymethyl phenyl ester], in series [1], the IC50 worked out at 3.2 ± 0.65 µM and the maximal effect (Emax) worked out at 96.8 ± 0.65%.
Consider `C[C@H](CSC(=O)OCCCCO[N+](=O)[O-])C(=O)N1CCC[C@H]1C(=O)O` [Ex. 2, 1-[(2S)-3-(4-Nitrooxybutoxycarbonyl)mercapto-2-methyl-1-oxopropyl]-L-proline], for which, in series [1], the IC50 was 6 ± 0.87 µM and the Emax was 96.9 ± 1.87%.
As to `CC(=O)SC[C@@H](C)C(=O)N1CCC[C@H]1C(=O)OCCCO[N+](=O)[O-]` [Ex. 8, 1-[3-(Acetylthio)-(2S)-methyl-1-oxopropyl]-L-proline 3-nitrooxypropyl ester], in series [1], the IC50 was 26.1 ± 3.91 µM and the maximal effect (Emax) is 77.9 ± 3.21%. In the series on SHR rats, the “Arterial pressure (MAP)” value was determined as 132 mmHg and the “Reduction of blood pressure vs the control” value came to 35%. The same compound registered an ACE activity on ACE of 59 U/L.
On to `C[C@H](CSC(=O)OCO[N+](=O)[O-])C(=O)N1CCC[C@H]1C(=O)O` [Ex. 3, 1-[(2S)-3-(Nitrooxymethoxycarbonyl)mercapto-2-methyl-1-oxopropyl]-L-proline], for which, in series [1], the IC50 came to 6.7 ± 0.84 µM and the maximal effect (Emax) is 97.9 ± 1.51%.
